Experiments:
[1] = tested on: retinal ganglion cells (RGCs); experiment: NMDA toxicity in mice (intravitreal NMDA), RGC survival; type: in vivo; settings: immunized ten days before NMDA (75 nmole); p=0.55 vs PBS
[2] = tested on: retinal ganglion cells (RGCs); experiment: Glutamate toxicity in mice (intravitreal glutamate), RGC survival; type: in vivo, C57BL/6J mice
[3] = batches of average molecular weight 23,000; Teitelbaum et al; cited from earlier work
retinal ganglion cells = experiment: Ocular hypertension (laser-induced increased IOP) in rats, RGC survival; type: in vivo, Lewis rats; settings: immunized in CFA on the day of the first laser treatment; after 3 weeks; p<0.0001
[4] = tested on: retinal ganglion cells (RGCs); experiment: Severe optic nerve crush injury in mice, RGC survival; type: in vivo, Balb/c mice; settings: 50 μg Cop-1 in CFA before severe crush; two weeks after injury; p<0.001
[5] = patients, cited from earlier work
[6] = tested on: retinal ganglion cells (RGCs); experiment: Optic nerve crush injury in rats: secondary degeneration by retrograde labeling of RGCs; type: in vivo, Lewis rats; settings: mild crush; vaccinated with Cop 1 in IFA immediately, booster two days later; P<0.05
Method: Crush Injury of Optic Nerve. The optic nerve was subjected to crush injury as previously described (Duvdevani et al, 1990). Briefly, rats were deeply anesthetized by intraperitoneal (i.p.) injection of Rompun (xylazine, 10 mg/kg; Vitamed, Israel) and Vetalar (ketamine, 50 mg/kg; Fort Dodge Laboratories, Fort Dodge, Iowa). Using a binocular operating microscope, lateral canthotomy was performed in the right eye, and the conjunctiva was incised lateral to the cornea. After separation of the retractor bulbi muscles, the optic nerve was exposed intraorbitally by blunt dissection. Using calibrated cross-action forceps, the optic nerve was subjected to a crush injury 1-2 mm from the eye. […]
Measurement of Secondary Degeneration by Retrograde Labeling of Retinal Ganglion Cells. Secondary degeneration of the optic nerve axons and their attached retinal ganglion cells (RGCs) was measured after post-injury application of the fluorescent lipophilic dye, 4-(4-(didecylamino)styryl)-N-methylpyridinium iodide (4-Di-10-Asp) (Molecular Probes Europe BV, Netherlands), distally to the lesion site, two weeks after crush injury. Because only axons that are intact can transport the dye back to their cell bodies, application of the dye distally to the lesion site after two weeks ensures that only axons that survived both the primary damage and the secondary degeneration will be counted. […]

Substance | protection from toxicity caused by NMDA (RGC survival) [1] | glutamate toxicity in controls relative to immunized mice ([2]; 75 μg Cop 1 in CFA ten days before 200 nmoles glutamate, RGCs counted seven days later) | mean percentage survival rate of RGCs versus PBS-injected ([2]; immunization 24 h after glutamate injection) | mean percentage survival rate of RGCs versus PBS-injected ([2]; immunization 48 h after glutamate injection) | rates of RGC survival versus PBS in adjuvant ([2]; immunized on the day of glutamate injection, adjuvant 0.5 or 5 mg/ml bacteria) | glutamate toxicity (RGC survival) after immunization ([2]; immunized ten days before glutamate, adjuvant 5 mg/ml bacteria) | protecting and suppressing EAE [3] | numbers of surviving retinal ganglion cells versus PBS/CFA controls (retinal ganglion cells) | RGC survival rates relative to non-immunized controls [4] | number of relapses in exacerbating-remitting MS ([5]; Bornstein 1990, Sela 1990, Johnson 1994) | tolerability in clinical trials ([5]; Johnson et al, 1995) | neuroprotection (surviving RGCs) compared with PBS in IFA [6] | RGC survival after glutamate injection, effect of immunization ([2]; pMOG in CFA prior to glutamate (200 nmole), assessed 1 week later)
Glatiramer acetate [Cop 1] | failed to protect | about four | significantly higher | not significant | significantly higher | significant reduction | highly effective | significantly higher | significantly higher | significantly reduce | well tolerated with only minor side reactions | significant neuroprotection | –
GQFRVIGPGHPIRALVGDEAEL (listed as Homo sapiens) [pMOG, Myelin oligodendrocyte glycoprotein (MOG) peptide 1-22] | – | – | – | – | – | – | – | – | – | – | – | – | no evidence of a beneficial effect

Reference: patent publication US7407936B2, “Use of copolymer 1 and related peptides and polypeptides and T cells treated herewith for neuroprotective glaucoma therapy” (Yeda Research and Development Co. Ltd., priority 2000, dated 2008)
